Measured values from patent US8178553B2, “Compounds for the treatment of inflammatory disorders” (Schering Corporation, priority 2006, dated 2012).
Like-named read-outs stand apart in the source and are kept apart here.

Molecular target: T1, purified catalytic domain of recombinant human TACE (rhTACEc) (Homo sapiens, UniProt P78536, N452Q/S266A)
T1 construct: rhTACEc, Residue 215 to 477 with two mutation (S266A and N452Q) and a 6xHis tail; 6xHis (C); made in house; host or cells: baculovirus/Hi5 insect cells
Experiment: TACE kinetic assay, cleavage of internally quenched fluorescent peptide substrate SPDL-3
Assay type: biochemical
Protocol: TACE activity is determined by a kinetic assay measuring the rate of increase in fluorescent intensity generated by TACE catalyzed cleavage of an internally quenched peptide substrate (SPDL-3). […] It is purified from the baculovirus/Hi5 cells expression system using affinity chromatography. […] MCA is (7-Methoxycoumarin-4-yl)acetyl. Dpa is N-3-(2,4-Dinitrophenyl)-L-2,3-diaminopropionyl.
A 50 μl assay mixture contains 20 mM HEPES, pH 7.3, 5 mM CaCl2, 100 µM ZnCl2, 2% DMSO, 0.04% Methylcellulose, 30 μM SPDL-3, 70 pM rhTACEc and a test compound. RhTACEc is pre-incubated with the testing compound for 90 min. at 25° C. Reaction is started by addition of the substrate. […] Rate of enzymatic reaction is shown as Units per second. Effect of a test compound is shown as % of TACE activity in the absence of the compound.

[1] = TACE inhibition, Table 1, read-out: Ki Rating

T1 sequence (P78536 215-477 S266A/N452Q): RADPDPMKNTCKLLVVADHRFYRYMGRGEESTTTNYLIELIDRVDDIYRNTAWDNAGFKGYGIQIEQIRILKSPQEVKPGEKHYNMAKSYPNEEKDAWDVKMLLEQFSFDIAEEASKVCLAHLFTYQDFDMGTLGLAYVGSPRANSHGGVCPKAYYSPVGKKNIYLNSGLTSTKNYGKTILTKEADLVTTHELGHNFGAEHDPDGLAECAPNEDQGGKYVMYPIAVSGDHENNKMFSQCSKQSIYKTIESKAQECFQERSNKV

| SMILES | Ki [1] [nM] | Ki [nM] |
| --- | --- | --- |
| COc1ccc2c(c1)C(=O)N(C[C@@]1(c3ccc(-c4ccc(S(N)(=O)=O)cc4)cc3)NC(=O)NC1=O)C2 [Compound 105] | < 10 |  |
| COc1ccc2c(c1)C(=O)N(CC1(c3ccc(S(C)(=O)=O)cc3)NC(=O)NC1=O)C2 (stereo not shown) [Compound 33] | < 10 |  |
| CCN(CC)C(=O)CC1(CN2Cc3ccc(OC)cc3C2=O)NC(=O)NC1=O (stereo not shown) [Compound 8] | 10 to 100 |  |
| COc1ccc2c(c1)C(=O)N(CC1(CC(=O)NCC(C)C)NC(=O)NC1=O)C2 (stereo not shown) [Compound 11] | 10 to 100 |  |
| COc1ccc2c(c1)C(=O)N(C[C@@]1(c3ccc(C(N)=O)cc3)NC(=O)NC1=O)C2 [Compound 103] | < 10 |  |
| COC(=O)c1cccnc1-c1ccc([C@]2(CN3Cc4ccc(OC)cc4C3=O)NC(=O)NC2=O)cc1 [Compound 57] | < 10 |  |
| COc1ccc2c(c1)C(=O)N(CC1(CC(=O)N3CCC(Cc4ccccc4)CC3)NC(=O)NC1=O)C2 (stereo not shown) [Compound 14] | < 10 |  |
| COc1ccc2c(c1)C(=O)N(C[C@]1(c3ccc(S(C)(=O)=O)cc3)NC(=O)NC1=O)C2 [Compound 42] | 100 to 1000 |  |
| O=C1NC(=O)C(CN2Cc3c[nH]c(=O)cc3C2=O)(c2ccc(F)cc2)N1 (stereo not shown) [Compound 29] | 10 to 100 |  |
| COc1ccc2c(c1)C(=O)N(C[C@@]1(c3ccc(-c4cc(C(=O)NC5CC5)ccn4)cc3)NC(=O)NC1=O)C2 [Compound 60] | < 10 |  |
| O=C1NC(=O)C(CN2Cc3ccsc3C2=O)(c2ccc(F)cc2)N1 (stereo not shown) [Compound 26] | 10 to 100 |  |
| N#Cc1ccc2c(c1)CN(CC1(c3ccc(F)cc3)NC(=O)NC1=O)C2=O (stereo not shown) [Compound 35] | 10 to 100 |  |
| COc1ccc2c(c1)C(=O)N(C[C@@]1(c3cc4cc(C(=O)O)cnc4o3)NC(=O)NC1=O)C2 [Compound 39] | < 10 |  |
| COC(=O)c1ccc([C@@]2(CN3Cc4ccc(OC)cc4C3=O)NC(=O)NC2=O)cc1 [Compound 40] | 10 to 100 |  |
| COC(=O)c1cnc(-c2ccc([C@]3(CN4Cc5ccc(OC)cc5C4=O)NC(=O)NC3=O)cc2)cn1 [Compound 54] | < 10 |  |
| COc1ccc2c(c1)C(=O)N(C[C@@]1(c3ccc(Oc4cccc(C(=O)NCCN(C)C)c4)cc3)NC(=O)NC1=O)C2 [Compound 90] | < 10 |  |
| COc1ccc2c(c1)C(=O)N(C[C@@]1(c3ccc(C#Cc4ccccn4)cc3)NC(=O)NC1=O)C2 [Compound 22] | < 10 |  |

| SMILES | Ki [1] [nM] | Ki [nM] |
| --- | --- | --- |
| COc1ccc2c(c1)C(=O)N(CC1(CC(=O)NCC3CCCO3)NC(=O)NC1=O)C2 (stereo not shown) [Compound 12] | 10 to 100 |  |
| COc1ccc2c(c1)CN(CC1(c3ccc(C#CCN(C)C)cc3)NC(=O)NC1=O)C2=O (stereo not shown) [Compound 18] | < 10 |  |
| COc1ccc2c(c1)C(=O)N(C[C@@]1(c3ccc(-c4cccc(C#N)c4)cc3)NC(=O)NC1=O)C2 [Compound 81] | < 10 |  |
| COc1ccc2c(c1)C(=O)N(C[C@@]1(c3ccc(-c4cnc(C(=O)NCC(F)(F)F)cn4)cc3)NC(=O)NC1=O)C2 [Compound 72] | < 10 |  |
| COc1ccc2c(c1)C(=O)N(CC1(CC(=O)N3CCOCC3)NC(=O)NC1=O)C2 (stereo not shown) [Compound 3] | 10 to 100 |  |
| COc1ccc2c(c1)C(=O)N(CC1(CC(=O)Nc3nc4ccccc4s3)NC(=O)NC1=O)C2 (stereo not shown) [Compound 10] | < 10 |  |
| COc1ccc2c(c1)C(=O)N(CC1(CC(=O)N[C@@H](C)c3ccccc3)NC(=O)NC1=O)C2 (stereo partly shown) [Compound 4] | 10 to 100 |  |
| COc1ccc2c(c1)C(=O)N(C[C@@]1(c3ccc(OC(=O)N(C)C)cc3)NC(=O)NC1=O)C2 [Compound 93] |  | < 10 |
| COc1ccc2c(c1)C(=O)N(C[C@@]1(c3cc4nc(SC)ccc4o3)NC(=O)NC1=O)C2 [Compound 49] | < 10 |  |
| COc1ccc2c(c1)C(=O)N(CC1(CC(=O)N3CCC(C#N)(c4ccccc4)CC3)NC(=O)NC1=O)C2 (stereo not shown) [Compound 16] | 10 to 100 |  |
| COc1ccc2c(c1)C(=O)N(CC1(CC(=O)N3CCN(C)CC3)NC(=O)NC1=O)C2 (stereo not shown) [Compound 13] | 10 to 100 |  |
| COc1ccc2c(c1)C(=O)N(C[C@@]1(c3ccc(-c4cnn(C)c4C#N)cc3)NC(=O)NC1=O)C2 [Compound 80] | < 10 |  |
| COc1ccc2c(c1)C(=O)N(CC1(c3ccc(C(=O)O)cc3)NC(=O)NC1=O)C2 (stereo not shown) [Compound 32] | < 10 |  |
| COc1ccc2c(c1)C(=O)N(C[C@@]1(c3ccc(-c4ccc5[nH]nc(C(N)=O)c5c4)cc3)NC(=O)NC1=O)C2 [Compound 78] | < 10 |  |
| COc1ccc2c(c1)C(=O)N(C[C@@]1(c3ccc(-c4cncc(C(=O)NC5CC5)c4)cc3)NC(=O)NC1=O)C2 [Compound 56] | < 10 |  |
| COC(=O)c1ccnc(-c2ccc([C@]3(CN4Cc5ccc(OC)cc5C4=O)NC(=O)NC3=O)cc2)c1 [Compound 74] | < 10 |  |
| COc1ccc2c(c1)C(=O)N(C[C@@]1(c3ccc(Oc4cccc(C(=O)N5CCOCC5)c4)cc3)NC(=O)NC1=O)C2 [Compound 87] | < 10 |  |
